According to ChEMBL document CHEMBL1134276, “Synthesis and antibacterial activity of acylides (3-O-acyl-erythromycin derivatives): a novel class of macrolide antibiotics” (2001):
In brackets after ≈: the same amount, converted by molar mass.

Assays:
Staphylococcus aureus [1] = test: In vitro antibacterial activity against erythromycin-susceptible Staphylococcus aureus 209P-JC strain; type: functional
Staphylococcus aureus [2] = test: In vitro antibacterial activity against constitutively MLS B resistant Staphylococcus aureus SR138 strain encoded by an ermA gene; type: functional
Staphylococcus aureus [3] = test: In vitro antibacterial activity against an inducibly MLS B resistant Staphylococcus aureus B1 strain; type: functional
Haemophilus influenzae = test: In vitro antibacterial activity against erythromycin-susceptible Hemophilus influenzae ATCC 43095 strain; type: functional
Staphylococcus aureus [4] = test: In vitro antibacterial activity against inducibly MLS B resistant Staphylococcus aureus B1 strain; type: functional
Staphylococcus aureus [5] = test: In vivo Minimum inhibitory conc against erythromycin susceptible Staphylococcus aureus Smith strain by mouse protection test; type: functional
Staphylococcus aureus [6] = test: In vitro antibacterial activity against constitutively MLS B resistant Staphylococcus aureus SR138 strain; type: functional
Streptococcus pneumoniae [7] = test: In vitro antibacterial activity against erythromycin-susceptible Streptococcus pneumoniae IID553 strain; type: functional
Streptococcus pneumoniae [8] = test: In vitro antibacterial activity against MLS-B resistant Streptococcus pneumoniae 221 strain encoded by an erm B gene; type: functional
Enterococcus faecalis [9] = test: In vitro antibacterial activity against erythromycin-susceptible Enterococcus faecalis ATCC 29212 strain; type: functional
Enterococcus faecium [10] = test: In vitro antibacterial activity against erythromycin-susceptible Enterococcus faecium ATCC 19434 strain
Streptococcus pneumoniae [11] = test: In vitro antibacterial activity against erythromycin efflux resistant Streptococcus pneumoniae 210 strain; type: functional
Mus musculus [12] = test: (§1) In vivo effective dose against erythromycin susceptible Staphylococcus aureus Smith strain by mouse protection test(95% confidence limits); type: functional
Enterococcus faecium [13] = test: In vitro antibacterial activity against erythromycin-susceptible Enterococcus faecium ATCC 19434 strain; type: functional
Mus musculus [14] = test: In vivo effective dose against erythromycin susceptible Staphylococcus aureus strain Smith by mouse protection test; type: functional
Staphylococcus aureus [15] = test: In vivo minimum inhibitory concentration against erythromycin susceptible Staphylococcus aureus Smith strain by mouse protection test; type: functional
Streptococcus pneumoniae [16] = test: In vitro antibacterial activity against constitutively MLS B resistant […] strain encoded by an ermB gene; type: functional
Enterococcus faecalis [17] = test: In vitro antibacterial activity against erythromycin-susceptible Enterococcus faecalis ATCC 19434 strain; type: functional
Enterococcus faecium [18] = test: In vitro antibacterial activity against erythromycin-susceptible Enterococcus faecium ATCC 29212 strain; type: functional
Staphylococcus aureus [19] = test: as §1; type: functional
Staphylococcus aureus [20] = test: In vivo Minimum inhibitory conc against erythromycin susceptible Staphylococcus aureus strain Smith by mouse protection test; type: functional
Streptococcus pneumoniae [21] = test: In vitro antibacterial activity against erythromycin- susceptible Streptococcus pneumoniae IID553 strain; type: functional

SMILES	MIC (Staphylococcus aureus [1]) [µg/mL]	MIC (Staphylococcus aureus [2]) [µg/mL]	MIC (Staphylococcus aureus [3]) [µg/mL]	further results
CC[C@H]1OC(=O)[C@H](C)[C@@H](OC(C)=O)[C@H](C)[C@@H](OC2O[C@H](C)C[C@H](N(C)C)C2O)[C@@](C)(OC)C[C@@H](C)C(=O)[C@H](C)[C@@H](O)[C@]1(C)O (stereo partly specified)	50 (≈ 79.1 µM)	> 100	> 100	
CC[C@H]1OC(=O)[C@H](C)[C@@H](O)[C@H](C)[C@@H](OC2O[C@H](C)C[C@H](N(C)C)C2O)[C@@](C)(OC)C[C@@H](C)C(=O)[C@H](C)[C@@H](O)[C@]1(C)O (stereo partly specified)	> 100			
CC[C@H]1OC(=O)[C@H](C)[C@@H](O[C@H]2C[C@@](C)(OC)[C@@H](O)[C@H](C)O2)[C@H](C)[C@@H](O[C@@H]2O[C@H](C)C[C@H](N(C)C)[C@H]2O)[C@](C)(OC)C[C@@H](C)C(=O)[C@H](C)[C@@H](O)[C@]1(C)O [CLARITHROMYCIN]	0.1 (≈ 0.134 µM)			MIC (Haemophilus influenzae): 6.25 µg/mL (≈ 8.36 µM); MIC (Staphylococcus aureus [4]): > 100 µg/mL; MIC (Staphylococcus aureus [5]): 0.2 µg/mL (≈ 0.267 µM); MIC (Staphylococcus aureus [6]): > 100 µg/mL; MIC (Streptococcus pneumoniae [7]): 0.05 µg/mL (≈ 0.0668 µM); MIC (Streptococcus pneumoniae [8]): > 100 µg/mL; MIC (Enterococcus faecalis [9]): 1.56 µg/mL (≈ 2.09 µM); MIC (Enterococcus faecium [10]): 1.56 µg/mL (≈ 2.09 µM); MIC (Streptococcus pneumoniae [11]): 1.56 µg/mL (≈ 2.09 µM); ED50 (Mus musculus [12]): 7.6 mg/kg
CC[C@H]1OC(=O)[C@H](C)[C@@H](OC(=O)Cc2ccc([N+](=O)[O-])cc2)[C@H](C)[C@@H](O[C@@H]2O[C@H](C)C[C@H](N(C)C)[C@H]2O)[C@@](C)(OC)C[C@@H](C)C(=O)[C@H](C)[C@@H](O)[C@]1(C)O	0.2 (≈ 0.266 µM)	> 100	0.39 (≈ 0.518 µM)	MIC (Haemophilus influenzae): 25 µg/mL (≈ 33.2 µM); MIC (Enterococcus faecium [13]): 0.05 µg/mL (≈ 0.0664 µM); MIC (Streptococcus pneumoniae [7]): 0.2 µg/mL (≈ 0.266 µM); MIC (Streptococcus pneumoniae [8]): > 100 µg/mL; MIC (Enterococcus faecalis [9]): 0.2 µg/mL (≈ 0.266 µM); ED50 (Mus musculus [14]): 15.4 mg/kg; MIC (Streptococcus pneumoniae [11]): 0.2 µg/mL (≈ 0.266 µM); MIC (Staphylococcus aureus [15]): 0.39 µg/mL (≈ 0.518 µM)
CC[C@H]1OC(=O)[C@H](C)[C@@H](OC(=O)CNC(=O)OCc2ccccc2)[C@H](C)[C@@H](OC2O[C@H](C)C[C@H](N(C)C)C2O)[C@@](C)(OC)C[C@@H](C)C(=O)[C@H](C)[C@@H](O)[C@]1(C)O (stereo partly specified)	3.13 (≈ 4.01 µM)	> 100	> 100	
CC[C@H]1OC(=O)[C@H](C)[C@@H](OC(=O)Cc2ccccc2)[C@H](C)[C@@H](O[C@@H]2O[C@H](C)C[C@H](N(C)C)[C@H]2O)[C@@](C)(OC)C[C@@H](C)C(=O)[C@H](C)[C@@H](O)[C@]1(C)O	0.78 (≈ 1.1 µM)	> 100	> 100	
CC[C@H]1OC(=O)[C@H](C)[C@@H](OC(=O)CNC(=O)OC(C)(C)C)[C@H](C)[C@@H](OC2O[C@H](C)C[C@H](N(C)C)C2O)[C@@](C)(OC)C[C@@H](C)C(=O)[C@H](C)[C@@H](O)[C@]1(C)O (stereo partly specified)	12.5 (≈ 16.7 µM)	> 100	> 100	
CC[C@H]1OC(=O)[C@H](C)[C@@H](OS(=O)(=O)Cc2ccccc2)[C@H](C)[C@@H](OC2O[C@H](C)C[C@H](N(C)C)C2O)[C@@](C)(OC)C[C@@H](C)C(=O)[C@H](C)[C@@H](O)[C@]1(C)O (stereo partly specified)	> 100			
CC[C@H]1OC(=O)[C@H](C)[C@@H](OC(=O)CN)[C@H](C)[C@@H](OC2O[C@H](C)C[C@H](N(C)C)C2O)[C@@](C)(OC)C[C@@H](C)C(=O)[C@H](C)[C@@H](O)[C@]1(C)O (stereo partly specified)	12.5 (≈ 19.3 µM)	> 100	> 100	
CC[C@H]1OC(=O)[C@H](C)[C@@H](OC(=O)CC#N)[C@H](C)[C@@H](OC2O[C@H](C)C[C@H](N(C)C)C2O)[C@@](C)(OC)C[C@@H](C)C(=O)[C@H](C)[C@@H](O)[C@]1(C)O (stereo partly specified)	25 (≈ 38.1 µM)	> 100	> 100	
CC[C@H]1OC(=O)[C@H](C)[C@@H](OC2CCCCO2)[C@H](C)[C@@H](OC2O[C@H](C)C[C@H](N(C)C)C2O)[C@@](C)(OC)C[C@@H](C)C(=O)[C@H](C)[C@@H](O)[C@]1(C)O (stereo partly specified)	12.5 (≈ 18.5 µM)	> 100	> 100	
CC[C@H]1OC(=O)[C@H](C)[C@@H](O[C@H]2C[C@@](C)(OC)[C@@H](O)[C@H](C)O2)[C@H](C)[C@@H](O[C@@H]2O[C@H](C)C[C@H](N(C)C)[C@H]2O)[C@](C)(O)C[C@@H](C)C(=O)[C@H](C)[C@@H](O)[C@]1(C)O [ERYTHROMYCIN]				MIC (Streptococcus pneumoniae [16]): > 100 µg/mL; MIC (Haemophilus influenzae): 6.25 µg/mL (≈ 8.52 µM); MIC (Enterococcus faecalis [17]): 3.13 µg/mL (≈ 4.26 µM); MIC (Enterococcus faecium [18]): 1.56 µg/mL (≈ 2.13 µM); MIC (Streptococcus pneumoniae [11]): 1.56 µg/mL (≈ 2.13 µM); ED50 (Staphylococcus aureus [19]): 56.6 mg/kg; MIC (Staphylococcus aureus [20]): 0.2 µg/mL (≈ 0.273 µM); MIC (Streptococcus pneumoniae [21]): 0.1 µg/mL (≈ 0.136 µM)
CC[C@H]1OC(=O)[C@H](C)[C@@H](OC(=O)c2ccc([N+](=O)[O-])cc2)[C@H](C)[C@@H](OC2O[C@H](C)C[C@H](N(C)C)C2O)[C@@](C)(OC)C[C@@H](C)C(=O)[C@H](C)[C@@H](O)[C@]1(C)O (stereo partly specified)	50 (≈ 67.7 µM)	> 100	> 100	
